# Measured values as given in ChEMBL document CHEMBL1909046, “DrugMatrix in vitro pharmacology data”.
# Test system: not listed separately
# Assay: DRUGMATRIX: Sodium/nucleoside co-transporter radioligand binding (ligand: nitrobenzylthioinosine)
# Assay type: cell membranes, Cavia porcellus, Dunkin-Hartley, Cerebral cortex, Membrane
# Details: Not Active = under 50% inhibition at 10 µM
Structure (SMILES),IC50,Ki
Cc1cc(NS(=O)(=O)c2ccc(N)cc2)no1 [SULFAMETHOXAZOLE],Not Active,Not Active
CN[C@@H]1[C@@H](O)[C@@H](O[C@@H]2[C@@H](O)[C@H](O[C@H]3OC(CN)=CC[C@H]3N)[C@@H](N)C[C@H]2N)OC[C@]1(C)O [SISOMICIN],Not Active,Not Active
O=C1c2c(O)ccc(O)c2C(=O)c2c(NCCNCCO)ccc(NCCNCCO)c21 [MITOXANTRONE],Not Active,Not Active

# Target: Beta-3 adrenergic receptor (Homo sapiens, UniProt P13945)
# Assay: DRUGMATRIX: Adrenergic beta3 radioligand binding (ligand: [125I] Cyanopindolol)
# Assay type: cell membranes, HEK293, Membrane
# Details: hek293; Not Active = under 50% inhibition at 10 µM
# Beta-3 adrenergic receptor, sequence (P13945 whole entry): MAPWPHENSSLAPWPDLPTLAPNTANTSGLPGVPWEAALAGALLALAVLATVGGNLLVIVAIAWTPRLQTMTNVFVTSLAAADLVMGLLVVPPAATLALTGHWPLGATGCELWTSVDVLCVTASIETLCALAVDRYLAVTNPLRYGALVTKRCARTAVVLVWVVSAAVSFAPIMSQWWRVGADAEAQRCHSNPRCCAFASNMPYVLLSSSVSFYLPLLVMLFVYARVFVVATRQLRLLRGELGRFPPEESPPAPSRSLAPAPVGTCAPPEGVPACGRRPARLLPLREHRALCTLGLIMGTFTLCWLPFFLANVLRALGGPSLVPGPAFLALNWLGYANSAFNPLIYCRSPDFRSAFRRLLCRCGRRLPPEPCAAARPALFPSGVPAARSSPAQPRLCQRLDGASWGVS
row,Structure (SMILES),IC50
1,Cc1cc(NS(=O)(=O)c2ccc(N)cc2)no1 [SULFAMETHOXAZOLE],Not Active
2,CN[C@@H]1[C@@H](O)[C@@H](O[C@@H]2[C@@H](O)[C@H](O[C@H]3OC(CN)=CC[C@H]3N)[C@@H](N)C[C@H]2N)OC[C@]1(C)O [SISOMICIN],Not Active
3,O=C1c2c(O)ccc(O)c2C(=O)c2c(NCCNCCO)ccc(NCCNCCO)c21 [MITOXANTRONE],Not Active

# Target: Prostaglandin G/H synthase 1 (Homo sapiens, UniProt P23219);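 note: inhibition of COX-1 enzyme activity, with arachidonic acid supplied as substrate; in other assays of this panel Not Active means under 50% inhibition at 10 µM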
# Assay: biochemical
# Assay type: tissue-based, Platelet
# Details: platelet
# Prostaglandin G/H synthase 1, sequence (P23219 whole entry): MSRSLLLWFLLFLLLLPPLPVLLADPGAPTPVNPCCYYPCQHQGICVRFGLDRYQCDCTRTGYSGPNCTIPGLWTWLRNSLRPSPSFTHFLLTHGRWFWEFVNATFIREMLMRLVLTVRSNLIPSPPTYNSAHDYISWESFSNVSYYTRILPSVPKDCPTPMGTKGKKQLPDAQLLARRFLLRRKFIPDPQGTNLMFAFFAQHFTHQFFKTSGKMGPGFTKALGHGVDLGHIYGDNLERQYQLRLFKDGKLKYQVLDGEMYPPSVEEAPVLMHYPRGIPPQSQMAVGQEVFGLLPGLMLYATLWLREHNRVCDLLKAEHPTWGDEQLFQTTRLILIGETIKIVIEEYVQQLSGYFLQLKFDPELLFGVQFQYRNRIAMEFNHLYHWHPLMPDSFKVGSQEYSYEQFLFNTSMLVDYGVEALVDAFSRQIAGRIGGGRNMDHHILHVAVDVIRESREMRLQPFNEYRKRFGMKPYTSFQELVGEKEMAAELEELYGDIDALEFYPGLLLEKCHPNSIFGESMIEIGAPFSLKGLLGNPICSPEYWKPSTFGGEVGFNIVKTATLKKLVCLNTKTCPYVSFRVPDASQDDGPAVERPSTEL
row,Structure (SMILES),IC50
1,Cc1cc(NS(=O)(=O)c2ccc(N)cc2)no1 [SULFAMETHOXAZOLE],Not Active
2,CN[C@@H]1[C@@H](O)[C@@H](O[C@@H]2[C@@H](O)[C@H](O[C@H]3OC(CN)=CC[C@H]3N)[C@@H](N)C[C@H]2N)OC[C@]1(C)O [SISOMICIN],Not Active
3,O=C1c2c(O)ccc(O)c2C(=O)c2c(NCCNCCO)ccc(NCCNCCO)c21 [MITOXANTRONE],Not Active

# Target: T1, Alpha-1D adrenergic receptor (Homo sapiens, UniProt P25100); note: in other assays of this panel Not Active means under 50% inhibition at 10 µM
# T1 sequence (P25100 whole entry): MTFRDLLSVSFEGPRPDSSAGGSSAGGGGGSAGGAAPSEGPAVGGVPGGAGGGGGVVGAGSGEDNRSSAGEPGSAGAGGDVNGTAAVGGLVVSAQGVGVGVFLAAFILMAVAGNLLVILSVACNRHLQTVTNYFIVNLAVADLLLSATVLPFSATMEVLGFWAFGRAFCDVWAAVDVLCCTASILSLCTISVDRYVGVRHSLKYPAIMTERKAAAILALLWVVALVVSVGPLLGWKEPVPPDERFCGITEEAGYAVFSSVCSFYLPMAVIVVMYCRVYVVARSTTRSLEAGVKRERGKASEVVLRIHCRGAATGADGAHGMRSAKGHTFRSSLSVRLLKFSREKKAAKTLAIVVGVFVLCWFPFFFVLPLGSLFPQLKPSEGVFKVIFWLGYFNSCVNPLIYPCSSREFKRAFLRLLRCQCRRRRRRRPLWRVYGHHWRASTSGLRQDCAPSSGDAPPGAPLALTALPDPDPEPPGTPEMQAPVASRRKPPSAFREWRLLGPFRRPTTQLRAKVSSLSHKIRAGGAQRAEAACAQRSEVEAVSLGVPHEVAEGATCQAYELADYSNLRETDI
# Assay: not given
# Assay type: cell membranes, HEK293, Membrane
# Details: hek293
row,Structure (SMILES),IC50
1,Cc1cc(NS(=O)(=O)c2ccc(N)cc2)no1 [SULFAMETHOXAZOLE],Not Active
2,CN[C@@H]1[C@@H](O)[C@@H](O[C@@H]2[C@@H](O)[C@H](O[C@H]3OC(CN)=CC[C@H]3N)[C@@H](N)C[C@H]2N)OC[C@]1(C)O [SISOMICIN],Not Active
3,O=C1c2c(O)ccc(O)c2C(=O)c2c(NCCNCCO)ccc(NCCNCCO)c21 [MITOXANTRONE],Not Active

# Target: T2, Calcitonin receptor (Homo sapiens, UniProt P30988); note: in other assays of this panel Not Active means under 50% inhibition at 10 µM
# T2 sequence (P30988 whole entry): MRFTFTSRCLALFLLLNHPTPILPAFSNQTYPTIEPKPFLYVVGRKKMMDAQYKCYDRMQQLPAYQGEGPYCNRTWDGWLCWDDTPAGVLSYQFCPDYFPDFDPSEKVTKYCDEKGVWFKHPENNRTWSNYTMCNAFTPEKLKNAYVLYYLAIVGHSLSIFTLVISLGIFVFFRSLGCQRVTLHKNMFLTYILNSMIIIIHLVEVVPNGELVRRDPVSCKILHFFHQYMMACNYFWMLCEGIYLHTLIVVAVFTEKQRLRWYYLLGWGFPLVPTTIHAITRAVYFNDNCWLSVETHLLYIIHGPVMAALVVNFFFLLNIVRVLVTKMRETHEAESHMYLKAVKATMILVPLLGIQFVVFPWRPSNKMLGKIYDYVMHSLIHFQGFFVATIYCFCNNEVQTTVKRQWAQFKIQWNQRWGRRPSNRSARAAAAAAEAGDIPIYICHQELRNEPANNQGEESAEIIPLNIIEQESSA
# Assay: not given
# Assay type: cell membranes, Membrane
# Details: t47d
row,Structure (SMILES),IC50
1,Cc1cc(NS(=O)(=O)c2ccc(N)cc2)no1 [SULFAMETHOXAZOLE],Not Active
2,CN[C@@H]1[C@@H](O)[C@@H](O[C@@H]2[C@@H](O)[C@H](O[C@H]3OC(CN)=CC[C@H]3N)[C@@H](N)C[C@H]2N)OC[C@]1(C)O [SISOMICIN],Not Active
3,O=C1c2c(O)ccc(O)c2C(=O)c2c(NCCNCCO)ccc(NCCNCCO)c21 [MITOXANTRONE],Not Active

# Target: T3, Cathepsin G (Homo sapiens, UniProt P08311);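 note: inhibition of Cathepsin G enzyme activity, tested on an AMC-conjugated peptide substrate; in other assays of this panel Not Active means under 50% inhibition at 10 µM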
# T3 sequence (P08311 whole entry): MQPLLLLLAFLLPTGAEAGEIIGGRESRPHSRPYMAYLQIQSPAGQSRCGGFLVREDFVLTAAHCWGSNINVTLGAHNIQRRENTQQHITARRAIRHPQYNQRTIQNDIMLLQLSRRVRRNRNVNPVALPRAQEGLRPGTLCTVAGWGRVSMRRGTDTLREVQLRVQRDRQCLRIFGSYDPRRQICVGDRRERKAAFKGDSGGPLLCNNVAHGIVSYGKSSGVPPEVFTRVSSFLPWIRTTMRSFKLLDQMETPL
# Assay: not given
# Assay type: tissue-based
# Details: neutrophil
row,Structure (SMILES),IC50
1,Cc1cc(NS(=O)(=O)c2ccc(N)cc2)no1 [SULFAMETHOXAZOLE],Not Active
2,CN[C@@H]1[C@@H](O)[C@@H](O[C@@H]2[C@@H](O)[C@H](O[C@H]3OC(CN)=CC[C@H]3N)[C@@H](N)C[C@H]2N)OC[C@]1(C)O [SISOMICIN],Not Active
3,O=C1c2c(O)ccc(O)c2C(=O)c2c(NCCNCCO)ccc(NCCNCCO)c21 [MITOXANTRONE],Not Active

# Target: Epidermal growth factor receptor (Homo sapiens, UniProt P00533)
# Assay: DRUGMATRIX: Protein Tyrosine Kinase, EGF Receptor enzyme inhibition (substrate: Poly(Glu:Tyr))
# Assay type: cell-based, Insect cells
# Details: Not Active = under 50% inhibition at 10 µM; read-out: IC50
# Epidermal growth factor receptor, sequence (P00533 whole entry): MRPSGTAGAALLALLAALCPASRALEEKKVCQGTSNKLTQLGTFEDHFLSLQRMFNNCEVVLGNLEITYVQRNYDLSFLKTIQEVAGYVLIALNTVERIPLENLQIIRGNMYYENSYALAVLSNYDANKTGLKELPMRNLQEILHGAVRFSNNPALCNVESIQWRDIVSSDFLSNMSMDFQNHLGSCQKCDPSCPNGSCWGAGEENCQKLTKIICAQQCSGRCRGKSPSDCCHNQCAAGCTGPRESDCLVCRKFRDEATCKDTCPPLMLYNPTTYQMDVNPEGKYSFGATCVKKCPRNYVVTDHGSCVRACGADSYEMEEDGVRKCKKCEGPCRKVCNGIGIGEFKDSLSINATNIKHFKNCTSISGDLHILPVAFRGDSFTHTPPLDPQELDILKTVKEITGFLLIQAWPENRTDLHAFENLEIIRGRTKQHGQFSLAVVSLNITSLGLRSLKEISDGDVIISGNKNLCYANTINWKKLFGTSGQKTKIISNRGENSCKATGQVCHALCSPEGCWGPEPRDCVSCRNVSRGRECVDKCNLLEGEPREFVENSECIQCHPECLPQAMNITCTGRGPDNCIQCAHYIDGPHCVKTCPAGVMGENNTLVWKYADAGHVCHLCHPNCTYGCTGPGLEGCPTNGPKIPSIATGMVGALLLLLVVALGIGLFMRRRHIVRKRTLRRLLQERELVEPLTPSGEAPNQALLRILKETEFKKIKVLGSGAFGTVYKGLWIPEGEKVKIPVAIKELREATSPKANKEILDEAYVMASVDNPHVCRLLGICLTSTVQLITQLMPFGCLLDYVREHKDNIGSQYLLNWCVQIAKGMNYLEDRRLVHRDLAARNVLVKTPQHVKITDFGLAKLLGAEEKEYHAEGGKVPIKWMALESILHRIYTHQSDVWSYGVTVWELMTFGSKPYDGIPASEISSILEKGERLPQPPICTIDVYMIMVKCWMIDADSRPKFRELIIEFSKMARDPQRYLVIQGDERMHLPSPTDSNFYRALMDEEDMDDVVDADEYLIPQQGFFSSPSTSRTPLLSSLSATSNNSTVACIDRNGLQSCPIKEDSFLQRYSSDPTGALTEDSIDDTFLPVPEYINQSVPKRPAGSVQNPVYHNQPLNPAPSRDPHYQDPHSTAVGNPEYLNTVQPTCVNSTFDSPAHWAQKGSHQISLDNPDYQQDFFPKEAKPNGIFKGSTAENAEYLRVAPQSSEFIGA
row,Structure (SMILES),IC50
1,O=C1c2c(O)ccc(O)c2C(=O)c2c(NCCNCCO)ccc(NCCNCCO)c21 [MITOXANTRONE],5.39 µM

# Same assay, conditions: insect cells; Not Active = under 50% inhibition at 10 µM
row,Structure (SMILES),IC50
1,Cc1cc(NS(=O)(=O)c2ccc(N)cc2)no1 [SULFAMETHOXAZOLE],Not Active
2,CN[C@@H]1[C@@H](O)[C@@H](O[C@@H]2[C@@H](O)[C@H](O[C@H]3OC(CN)=CC[C@H]3N)[C@@H](N)C[C@H]2N)OC[C@]1(C)O [SISOMICIN],Not Active

# Target: T4, D(4) dopamine receptor (Homo sapiens, UniProt P21917)
# T4 sequence (P21917 whole entry): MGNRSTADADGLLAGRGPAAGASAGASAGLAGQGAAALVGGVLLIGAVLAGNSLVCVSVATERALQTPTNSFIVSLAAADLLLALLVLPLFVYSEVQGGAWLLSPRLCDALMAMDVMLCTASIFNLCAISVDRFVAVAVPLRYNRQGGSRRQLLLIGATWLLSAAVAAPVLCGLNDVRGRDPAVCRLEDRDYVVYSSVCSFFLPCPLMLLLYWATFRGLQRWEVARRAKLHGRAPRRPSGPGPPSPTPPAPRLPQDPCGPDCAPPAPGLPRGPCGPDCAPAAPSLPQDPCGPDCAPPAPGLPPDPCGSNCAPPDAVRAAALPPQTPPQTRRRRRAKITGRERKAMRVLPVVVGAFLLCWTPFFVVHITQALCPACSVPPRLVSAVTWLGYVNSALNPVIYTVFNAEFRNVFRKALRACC
# Assay: DRUGMATRIX: Dopamine D4.2 radioligand binding (ligand: [3H] Spiperone)
# Assay type: cell membranes, CHO-K1, Membrane
# Details: cho-k1; Not Active = under 50% inhibition at 10 µM
row,Structure (SMILES),IC50
1,Cc1cc(NS(=O)(=O)c2ccc(N)cc2)no1 [SULFAMETHOXAZOLE],Not Active
2,CN[C@@H]1[C@@H](O)[C@@H](O[C@@H]2[C@@H](O)[C@H](O[C@H]3OC(CN)=CC[C@H]3N)[C@@H](N)C[C@H]2N)OC[C@]1(C)O [SISOMICIN],Not Active
3,O=C1c2c(O)ccc(O)c2C(=O)c2c(NCCNCCO)ccc(NCCNCCO)c21 [MITOXANTRONE],Not Active

# Target: Glycine receptor (Rattus norvegicus, UniProt P22771+P24524+P07727+P20781); note: in other assays of this panel Not Active means under 50% inhibition at 10 µM
# Assay: not given
# Assay type: cell membranes, Wistar, Spinal cord, Membrane
# Details: not given
row,Structure (SMILES),IC50
1,Cc1cc(NS(=O)(=O)c2ccc(N)cc2)no1 [SULFAMETHOXAZOLE],Not Active
2,CN[C@@H]1[C@@H](O)[C@@H](O[C@@H]2[C@@H](O)[C@H](O[C@H]3OC(CN)=CC[C@H]3N)[C@@H](N)C[C@H]2N)OC[C@]1(C)O [SISOMICIN],Not Active
3,O=C1c2c(O)ccc(O)c2C(=O)c2c(NCCNCCO)ccc(NCCNCCO)c21 [MITOXANTRONE],Not Active

# Target: Protein kinase C alpha type (Homo sapiens, UniProt P17252)
# Assay: not given
# Assay type: cell-based
# Details: sf9
row,Structure (SMILES),IC50
1,Cc1cc(NS(=O)(=O)c2ccc(N)cc2)no1 [SULFAMETHOXAZOLE],Not Active
2,CN[C@@H]1[C@@H](O)[C@@H](O[C@@H]2[C@@H](O)[C@H](O[C@H]3OC(CN)=CC[C@H]3N)[C@@H](N)C[C@H]2N)OC[C@]1(C)O [SISOMICIN],Not Active
3,O=C1c2c(O)ccc(O)c2C(=O)c2c(NCCNCCO)ccc(NCCNCCO)c21 [MITOXANTRONE],Not Active

# Target: T5, Alpha-1A adrenergic receptor (Rattus norvegicus, UniProt P43140)
# T5 sequence (P43140 whole entry): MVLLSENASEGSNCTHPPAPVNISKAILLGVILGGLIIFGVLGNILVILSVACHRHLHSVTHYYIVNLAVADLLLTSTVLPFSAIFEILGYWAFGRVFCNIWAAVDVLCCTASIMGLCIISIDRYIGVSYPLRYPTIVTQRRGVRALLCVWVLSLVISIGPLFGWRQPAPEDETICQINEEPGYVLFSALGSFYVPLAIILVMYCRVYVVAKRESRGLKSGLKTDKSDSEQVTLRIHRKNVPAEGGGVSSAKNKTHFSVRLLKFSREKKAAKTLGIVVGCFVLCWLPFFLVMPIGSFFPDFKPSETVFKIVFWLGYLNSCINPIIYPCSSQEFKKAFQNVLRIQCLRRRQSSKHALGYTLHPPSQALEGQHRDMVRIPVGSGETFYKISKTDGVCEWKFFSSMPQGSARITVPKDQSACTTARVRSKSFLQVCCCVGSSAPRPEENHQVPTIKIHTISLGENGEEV
# Assay: DRUGMATRIX: Alpha-1A adrenergic receptor radioligand binding (ligand: prazosin)
# Assay type: cell membranes, Wistar, Submaxillary gland, Membrane
# Details: Not Active = under 50% inhibition at 10 µM
row,Structure (SMILES),IC50
1,Cc1cc(NS(=O)(=O)c2ccc(N)cc2)no1 [SULFAMETHOXAZOLE],Not Active
2,CN[C@@H]1[C@@H](O)[C@@H](O[C@@H]2[C@@H](O)[C@H](O[C@H]3OC(CN)=CC[C@H]3N)[C@@H](N)C[C@H]2N)OC[C@]1(C)O [SISOMICIN],Not Active
3,O=C1c2c(O)ccc(O)c2C(=O)c2c(NCCNCCO)ccc(NCCNCCO)c21 [MITOXANTRONE],Not Active

# Test system: not listed separately
# Assay: DRUGMATRIX: Phosphodiesterase PDE4 enzyme inhibition (substrate: [3H]cAMP + cAMP)
# Details: u-937; Not Active = under 50% inhibition at 10 µM
Structure (SMILES),IC50,Ki
Cc1cc(NS(=O)(=O)c2ccc(N)cc2)no1 [SULFAMETHOXAZOLE],Not Active,Not Active
CN[C@@H]1[C@@H](O)[C@@H](O[C@@H]2[C@@H](O)[C@H](O[C@H]3OC(CN)=CC[C@H]3N)[C@@H](N)C[C@H]2N)OC[C@]1(C)O [SISOMICIN],Not Active,Not Active
O=C1c2c(O)ccc(O)c2C(=O)c2c(NCCNCCO)ccc(NCCNCCO)c21 [MITOXANTRONE],Not Active,Not Active
